Test results taken from patent publication US9611223B2, “3-aryl-5-substituted-isoquinolin-1-one compounds and their therapeutic use” (INSTITUTE OF CANCER RESEARCH: ROYAL CANCER HOSPITAL (THE), priority 2013, dated 2017).
pIC50: −log10 of the molar value. Read-outs that look alike come from different tables or passages of the source.

Columns and labels:
HT55 cells = test: Tumour Cell Inhibition Assay (HT55 cells); type: cell-based; conditions: Homo sapiens, HT55, 120 h, Tumour Cell Inhibition Assay, five day exposure
Description: (§1) Tumour Cell Inhibition in Colorectal Tumour Cells
(§2) In order to determine the efficacy of acute dosing of putative TNKS inhibitors, five day exposure cell viability assays were carried out. This included the sparse seeding of cells in a 96-well plate followed by continuous dosing of cells over a five day period.
(§3) Appropriate cell lines (HT55, COLO320DM and SW620) were seeded at 500 cells/well in a 96-well plate in MEM (HT55), RPMI (COLO320DM) or DMEM (SW620) supplemented with FBS. After overnight incubation, cells were treated with the appropriate putative TNKS inhibitor in 6 or 10 concentrations ranging from 0 μM to 10 μM at 0.2% final DMSO concentration in appropriate media supplemented with 10% or 0.5% FBS. Dosages were carried out in triplicate. Termination of the assay and measurement of cell viability was achieved by the use of Cell Titre Glo reagent and luminescence measurement on an appropriate plate reader.
(§4) Dose response curves used to determine SF50 values were Log transformed and analysed by non-linear regression analysis (variable slope) using Prism (GraphPad Software, Inc).

TNKS1 = target: T1, TNKS1 (Homo sapiens, UniProt O95271, M1266I); test: TNKS1/PARP Biochemical Assay
T1 construct: expresses the active PARP domain of TNKS1 as a polyhistidine tagged protein; made in house; host or cells: E. coli Rosetta2(DE3)
T1 sequence (O95271 1112-1317 M1266I): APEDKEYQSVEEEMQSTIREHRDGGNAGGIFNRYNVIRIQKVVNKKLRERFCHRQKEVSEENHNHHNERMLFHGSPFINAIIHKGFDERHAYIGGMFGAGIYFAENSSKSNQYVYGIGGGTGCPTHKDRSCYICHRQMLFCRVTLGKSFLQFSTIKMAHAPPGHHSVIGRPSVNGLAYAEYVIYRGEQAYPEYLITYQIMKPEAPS
Description: TNKS1/PARP Biochemical Assay
Tankyrase activity was assayed using a 96-well format HT Universal Chemiluminescent PARP Assay Kit (Trevigen, Inc, cat. no. 4676-096-K) according to the manufacturer's instructions. In short, tankyrase/PARP activity is quantified by the incorporation of biotinylated nicotinamide adenine dinucleotide (biotin-NAD^+) onto the immobilised pseudo substrate, Histone. The extent of poly(Biotin-ADP)ribosylation (PARylation) in the presence of increasing dose of inhibitor is then quantified by binding of streptavidin conjugated horse radish peroxidase (strep-HRP) followed by chemiluminescent detection.
Prior to assay initiation, inhibitor stocks were prepared in aqueous DMSO (10% (v/v)) from 5 millimolar (mM) stock in 100% DMSO (Sigma Aldrich, cat. no. 265855) as 10× concentrations. For the primary assay (i.e., single dose at 1 micromolar (μM) final concentration) this corresponded to 10 μM in 10% DMSO. For IC50 determination, this corresponded to 100 μM, 30 μM, 10 μM, 3.0 μM, 1.0 μM, 0.30 μM, 0.10 μM and 0 μM in 10% DMSO for final concentrations of 10 μM, 3.0 μM, 1.0 μM, 0.30 μM, 0.10 μM, 0.030 μM, 0.010 μM, and 0 μM with 1% (v/v) final DMSO. The assay was initiated by the addition of 10× inhibitor (5 microliters (μL)) or 10% aqueous DMSO (5 μL) to triplicate wells. Twenty microliters of diluted TNKS1 protein (200 nanomolar (nM) final conc.) in PARP buffer (Trevigen, Inc, cat. no. 4671-096-02) was added to each histone coated well, which was previously hydrated with PARP buffer. Triplicate wells with 1% DMSO/buffer alone (no enzyme) were also added as a measure of assay ‘noise’. Positive control for PARP inhibition included the addition of 4-amino-1,8-naphthalimide (Sigma Aldrich, cat. no A0966) in corresponding doses.
The mixture was incubated for 10 minutes at room temperature and the PARylation reaction initiated by the addition of PARP cocktail (25 μL, Trevigen, Inc) containing biotin-NAD^+ (Trevigen, Inc, cat. no. 4670-500-01), activated DNA (Trevigen, Inc, cat. no. 4671-096-06) and PARP buffer. The reaction was incubated for 1.5 hours (for TNKS1) or 1 hour (for PARP1) at room temperature. The reaction mixture was then removed by aspiration and the wells washed (3×200 μL) with phosphate buffered saline containing Triton X-100 (0.1% (v/v), Sigma Aldrich cat. no. T8787). The wells were then washed (3×200 μL) with phosphate buffered saline and then incubated with strep-HRP (50 μL, Trevigen, Inc, cat. no. 4800-30-06) in strep-diluent (1:500 dilution, Trevigen Inc, cat. no. 4671-096-04) for 1 hour at room temperature. The Strep-HRP mixture was then aspirated and the wells washed (3×200 μL) with phosphate buffered saline containing Triton X-100 (0.1% (v/v)) followed by phosphate buffered saline (3×200 μL) and then incubated with PeroxyGlow™ reagent (100 μL, Trevigen, Inc, cat. nos. 4675-096-01, 4675-096-02, room temperature, mixed 1:1).
The amount of light emitted as a result of the peroxidase-chemiluminescent reagent reaction was in proportion to the extent of poly(Biotin-ADP)ribosylation and was immediately measured with a Victor^2 plate reader (Perkin Elmer, luminescence detection assay, luminescent units described as ‘Counts Per Second’ (CPS)). The data were normalised to the DMSO control after subtraction of ‘noise’ and was expressed as % PARP activity as a function of inhibitor dose. Inhibition was expressed as 100%−(% PARP activity). Dose response curves used to determine IC50 values were Log transformed and analysed by non-linear regression analysis (variable slope) using Prism (GraphPad Software, Inc) and were presented as IC50 with 95% confidence interval to determine relative potency.
Tankyrase1 (pNIC-Bsa4-TNKS1^PARP) expression construct was obtained from the Structural Genomics Consortium (SGC) and expresses the active PARP domain of TNKS1 as a polyhistidine tagged protein. […]

SW620 cells = test: Tumour Cell Inhibition Assay (SW620 cells); type: cell-based; conditions: Homo sapiens, SW-620, 120 h, five day exposure
Description: as §1, §2, §3, §4

COLO320DM cells = test: Tumour Cell Inhibition Assay (COLO320DM cells); type: cell-based; conditions: Homo sapiens, COLO 320DM, 120 h, five day exposure, read-out: cell inhibitory SF50 (COLO320DM)
Description: as §1, §2, §3, §4

| Compound | pIC50 (HT55 cells; replicate, read-out: cell inhibitory SF50 (HT55), replicate) | pIC50 (TNKS1) | pIC50 (SW620 cells; read-out: cell inhibitory SF50 (SW620)) | pIC50 (SW620 cells; replicate, read-out: cell inhibitory SF50 (SW620), replicate) | pIC50 (COLO320DM cells) | pIC50 (HT55 cells; read-out: cell inhibitory SF50 (HT55)) |
| --- | --- | --- | --- | --- | --- | --- |
| CN(C)C1CCN(Cc2ccc(-c3cc4c(C#N)cccc4c(=O)[nH]3)cc2)CC1 [IQ-012] | 5.74 | > 7.30 | 5.52 | 5.77 | > 5.30 | – |
| CN1CCN(Cc2ccc(-c3cc4c(C#N)cccc4c(=O)[nH]3)cc2)CC1 [IQ-002, 3-[4-(4-Methyl-piperazin-1-ylmethyl)-phenyl]-1-oxo-1,2-dihydro-isoquinoline-5-carbonitrile] | – | > 7.30 | – | – | > 5.30 | – |
| CN1CCN(Cc2ccc(-c3cc4c(C#N)cc(F)cc4c(=O)[nH]3)cc2)CC1 [IQ-014] | – | > 7.00 | – | – | > 5.30 | – |
| CN(C)C1CCN(Cc2ccc(-c3cc4c(C#N)cccc4c(=O)[nH]3)cc2)C1 (stereo not drawn) [IQ-011] | – | > 7.00 | – | – | > 5.30 | > 5.30 |
